# Experiments:
# Assay in all cases: relative viability (nuclei count vs DMSO), 5 days (fraction); higher = more cells survive
# Seliciclib + Luminespib = compound: CC[C@H](CO)Nc1nc(NCc2ccccc2)c2ncn(C(C)C)c2n1 [Seliciclib] + CCNC(=O)c1noc(-c2cc(C(C)C)c(O)cc2O)c1-c1ccc(CN2CCOCC2)cc1 [Luminespib] (partner 0.01 µM)
# Method in brief: (§1)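 Dosing by pin tool came one day after lung cancer cell lines were seeded in 1536-well plates, using either one drug or a fixed anchor-drug dose plus five library-drug doses (not always all listed) in √10 steps. After 5 days, nuclei were counted on 4× images. Relative viability is treated-well nuclei count divided by vehicle-well nuclei count, and values are medians of duplicate plates.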
# Seliciclib + Tozasertib = compound: CC[C@H](CO)Nc1nc(NCc2ccccc2)c2ncn(C(C)C)c2n1 [Seliciclib] + Cc1cc(Nc2cc(N3CCN(C)CC3)nc(Sc3ccc(NC(=O)C4CC4)cc3)n2)n[nH]1 [Tozasertib] (partner 0.1 µM)
# Method in brief: as §1
# Seliciclib + Alpelisib = compound: CC[C@H](CO)Nc1nc(NCc2ccccc2)c2ncn(C(C)C)c2n1 [Seliciclib] + Cc1nc(NC(=O)N2CCC[C@H]2C(N)=O)sc1-c1ccnc(C(C)(C)C(F)(F)F)c1 [Alpelisib] (partner 2 µM)
# Method in brief: as §1
# Seliciclib + Dasatinib = compound: CC[C@H](CO)Nc1nc(NCc2ccccc2)c2ncn(C(C)C)c2n1 [Seliciclib] + Cc1nc(Nc2ncc(C(=O)Nc3c(C)cccc3Cl)s2)cc(N2CCN(CCO)CC2)n1 [Dasatinib] (partner 0.075 µM)
# Method in brief: as §1
Cell Line,relative viability (Seliciclib + Luminespib; first compound 0.08 µM),relative viability (Seliciclib + Luminespib; first compound 0.253 µM),relative viability (Seliciclib + Luminespib; first compound 0.8 µM),relative viability (Seliciclib + Luminespib; first compound 2.53 µM),relative viability (Seliciclib + Luminespib; first compound 8 µM),relative viability (Seliciclib + Tozasertib; first compound 0.08 µM),relative viability (Seliciclib + Tozasertib; first compound 0.253 µM),relative viability (Seliciclib + Tozasertib; first compound 0.8 µM),relative viability (Seliciclib + Tozasertib; first compound 2.53 µM),relative viability (Seliciclib + Tozasertib; first compound 8 µM),relative viability (Seliciclib + Alpelisib; first compound 0.08 µM),relative viability (Seliciclib + Alpelisib; first compound 0.253 µM),relative viability (Seliciclib + Alpelisib; first compound 0.8 µM),relative viability (Seliciclib + Alpelisib; first compound 2.53 µM),relative viability (Seliciclib + Alpelisib; first compound 8 µM),relative viability (Seliciclib + Dasatinib; first compound 0.08 µM),relative viability (Seliciclib + Dasatinib; first compound 0.253 µM),relative viability (Seliciclib + Dasatinib; first compound 0.8 µM),relative viability (Seliciclib + Dasatinib; first compound 2.53 µM),relative viability (Seliciclib + Dasatinib; first compound 8 µM)
NCI-H1915,0.756,0.765,0.785,0.853,0.653,0.486,0.437,0.43,0.444,0.315,1.05,1.1,1.04,1.04,0.875,0.354,0.303,0.277,0.288,0.283
NCI-H1944,0.69,0.716,0.613,0.791,0.549,0.263,0.242,0.235,0.225,0.234,0.813,0.859,0.77,0.904,0.666,0.242,0.198,0.208,0.17,0.205
NCI-H1975,0.2,0.124,0.19,0.198,0.479,0.777,0.769,0.704,0.681,0.296,0.653,0.526,0.602,0.621,0.445,0.409,0.374,0.424,0.326,0.314
NCI-H1993,0.879,0.733,0.875,0.674,0.612,0.546,0.578,0.596,0.541,0.508,0.728,0.708,0.716,0.688,0.669,0.589,0.478,0.521,0.508,0.435
NCI-H2009,0.998,1.13,1.07,1.01,0.943,0.767,0.742,0.809,0.69,0.635,1.14,1.31,1.15,1.14,1.23,0.322,0.376,0.307,0.233,0.288
NCI-H2023,0.681,0.832,0.703,0.569,0.421,0.393,0.357,0.337,0.36,0.22,0.548,0.542,0.523,0.58,0.531,0.534,0.407,0.606,0.434,0.477
NCI-H2085,0.508,0.462,0.414,0.398,0.372,0.807,0.96,0.737,0.619,0.664,0.971,1.19,0.984,0.926,0.809,0.219,0.274,0.256,0.294,0.251
NCI-H2087,0.192,0.188,0.158,0.193,0.231,0.252,0.234,0.242,0.231,0.192,1.08,1.21,1.06,1.09,0.815,0.874,1.07,0.898,0.704,0.754
NCI-H2126,0.906,0.733,0.89,0.642,0.781,0.868,0.823,0.846,0.676,0.736,0.681,0.698,0.753,0.749,0.673,0.671,0.598,0.557,0.334,0.501
NCI-H2170,0.738,0.552,0.729,1.04,0.714,0.728,0.707,0.589,0.83,0.507,0.801,0.585,0.824,0.904,0.834,0.547,0.464,0.472,0.636,0.52
NCI-H2228,0.157,0.155,0.14,0.185,0.149,0.313,0.318,0.267,0.241,0.178,0.639,0.69,0.936,0.658,0.63,0.581,0.488,0.481,0.514,0.368
NCI-H2347,0.428,0.328,0.512,0.412,0.721,0.632,0.517,0.522,0.645,0.547,1.05,1.04,0.757,1.03,0.805,0.323,0.35,0.209,0.248,0.302
NCI-H2405,0.676,0.661,0.799,0.385,0.548,0.753,0.797,0.762,0.602,0.601,0.718,0.698,0.642,0.689,0.729,0.211,0.219,0.197,0.171,0.212
NCI-H3122,0.0896,–,0.1,0.0781,0.11,0.428,0.347,0.393,0.378,0.329,0.762,0.763,0.753,0.765,0.777,0.719,–,0.787,0.679,0.812
PC-3 [JPC-3],0.81,0.584,0.63,0.605,0.66,0.883,0.837,0.871,0.88,0.708,1.02,1.07,0.968,0.997,0.904,1.04,1,0.982,0.936,0.946
PC-14,0.179,–,0.114,0.135,0.203,0.551,0.608,0.55,0.574,0.445,0.86,0.871,0.878,0.909,0.854,0.288,0.396,0.269,0.215,0.23
